# Source: ChEMBL document CHEMBL3526083, “Prediction of relative in vivo metabolite exposure from in vitro data using two model drugs: dextromethorphan and omeprazole” (Drug Metab Dispos, 2012)
# Key:
# Liver microsome [1] = assay: Drug metabolism in human liver microsomes assessed as dextrophan-O-glucuronide formation measured as intrinsic clearance in presence of 2% BSA; assay type: ADME
# Liver microsome [2] = assay: Drug metabolism in human liver microsomes assessed as 3-hydroxymorphinan formation measured as plasma fraction unbound; assay type: ADME, cell-free
# [3] = molecular target: T1, UDP-glucuronosyltransferase 1A10 (Homo sapiens, UniProt Q9HAW8); assay: Drug metabolism assessed as recombinat UGT1A10 (unknown origin) -mediated dextrophan-O-glucuronide formation; assay type: ADME
# T1 sequence (Q9HAW8 whole entry): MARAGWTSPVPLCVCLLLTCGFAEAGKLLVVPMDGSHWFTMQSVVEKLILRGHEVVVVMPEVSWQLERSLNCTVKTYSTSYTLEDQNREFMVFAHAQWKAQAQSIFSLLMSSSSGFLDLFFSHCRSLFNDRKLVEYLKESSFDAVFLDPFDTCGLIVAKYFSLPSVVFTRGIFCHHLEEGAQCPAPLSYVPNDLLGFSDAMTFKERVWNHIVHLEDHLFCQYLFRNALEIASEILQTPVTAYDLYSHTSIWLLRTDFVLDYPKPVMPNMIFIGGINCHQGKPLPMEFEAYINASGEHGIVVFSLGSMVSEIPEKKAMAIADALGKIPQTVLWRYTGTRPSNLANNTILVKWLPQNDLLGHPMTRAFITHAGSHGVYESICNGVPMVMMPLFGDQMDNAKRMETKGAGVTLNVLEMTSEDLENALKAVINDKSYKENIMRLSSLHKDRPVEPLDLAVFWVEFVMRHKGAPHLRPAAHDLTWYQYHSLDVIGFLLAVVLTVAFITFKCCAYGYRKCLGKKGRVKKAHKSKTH
# [4] = molecular target: T2, UDP-glucuronosyltransferase 2B17 (Homo sapiens, UniProt O75795); assay: Drug metabolism assessed as recombinat UGT2B17 (unknown origin) -mediated dextrophan-O-glucuronide formation; assay type: ADME
# T2 sequence (O75795 whole entry): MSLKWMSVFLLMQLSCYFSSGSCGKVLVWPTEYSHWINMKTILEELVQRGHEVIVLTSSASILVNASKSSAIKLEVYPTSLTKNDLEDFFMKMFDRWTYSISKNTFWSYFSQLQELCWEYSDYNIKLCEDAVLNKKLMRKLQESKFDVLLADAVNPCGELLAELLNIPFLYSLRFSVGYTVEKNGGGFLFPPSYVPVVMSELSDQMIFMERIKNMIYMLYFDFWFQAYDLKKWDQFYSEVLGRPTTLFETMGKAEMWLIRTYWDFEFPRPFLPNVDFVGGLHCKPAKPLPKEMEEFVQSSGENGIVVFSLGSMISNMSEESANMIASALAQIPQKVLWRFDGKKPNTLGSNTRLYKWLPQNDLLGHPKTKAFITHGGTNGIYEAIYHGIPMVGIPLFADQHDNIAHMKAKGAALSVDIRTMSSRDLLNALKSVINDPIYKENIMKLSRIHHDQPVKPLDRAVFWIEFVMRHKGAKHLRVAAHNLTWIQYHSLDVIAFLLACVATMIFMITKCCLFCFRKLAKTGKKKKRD
# [5] = molecular target: T3, UDP-glucuronosyltransferase 1A6 (Homo sapiens, UniProt P19224); assay: Drug metabolism assessed as recombinat UGT1A6 (unknown origin) -mediated dextrophan-O-glucuronide formation; assay type: ADME
# T3 sequence (P19224 whole entry): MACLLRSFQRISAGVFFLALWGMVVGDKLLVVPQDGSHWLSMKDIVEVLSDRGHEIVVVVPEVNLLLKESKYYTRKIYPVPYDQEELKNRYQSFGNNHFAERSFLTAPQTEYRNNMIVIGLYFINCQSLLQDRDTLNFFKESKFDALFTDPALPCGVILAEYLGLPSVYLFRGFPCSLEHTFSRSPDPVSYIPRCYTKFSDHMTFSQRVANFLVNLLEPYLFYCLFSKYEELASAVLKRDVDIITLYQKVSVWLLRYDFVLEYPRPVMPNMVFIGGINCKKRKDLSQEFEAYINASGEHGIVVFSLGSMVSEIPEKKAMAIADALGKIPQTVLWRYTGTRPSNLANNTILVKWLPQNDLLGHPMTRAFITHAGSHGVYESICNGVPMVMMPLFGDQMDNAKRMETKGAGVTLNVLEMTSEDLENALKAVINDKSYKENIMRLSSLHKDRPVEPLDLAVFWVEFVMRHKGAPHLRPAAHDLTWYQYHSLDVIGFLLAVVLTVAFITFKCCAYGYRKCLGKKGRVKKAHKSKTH
# Liver microsome [6] = assay: Drug metabolism in human liver microsomes assessed as dextrophan-O-glucuronide formation in presence of 2% BSA; assay type: ADME
# Liver microsome [7] = assay: Drug metabolism in human liver microsomes assessed as 3-hydroxymorphinan formation measured as intrinsic unbound clearance; assay type: ADME
# Liver microsome [8] = assay: Drug metabolism in human liver microsomes assessed as dextrophan-O-glucuronide formation measured per mg of microsomal protein in presence of 2% BSA; assay type: ADME
# [9] = molecular target: T4, UDP-glucuronosyltransferase 1A4 (Homo sapiens, UniProt P22310); assay: Drug metabolism assessed as recombinat UGT1A4 (unknown origin) -mediated dextrophan-O-glucuronide formation; assay type: ADME
# T4 sequence (P22310 whole entry): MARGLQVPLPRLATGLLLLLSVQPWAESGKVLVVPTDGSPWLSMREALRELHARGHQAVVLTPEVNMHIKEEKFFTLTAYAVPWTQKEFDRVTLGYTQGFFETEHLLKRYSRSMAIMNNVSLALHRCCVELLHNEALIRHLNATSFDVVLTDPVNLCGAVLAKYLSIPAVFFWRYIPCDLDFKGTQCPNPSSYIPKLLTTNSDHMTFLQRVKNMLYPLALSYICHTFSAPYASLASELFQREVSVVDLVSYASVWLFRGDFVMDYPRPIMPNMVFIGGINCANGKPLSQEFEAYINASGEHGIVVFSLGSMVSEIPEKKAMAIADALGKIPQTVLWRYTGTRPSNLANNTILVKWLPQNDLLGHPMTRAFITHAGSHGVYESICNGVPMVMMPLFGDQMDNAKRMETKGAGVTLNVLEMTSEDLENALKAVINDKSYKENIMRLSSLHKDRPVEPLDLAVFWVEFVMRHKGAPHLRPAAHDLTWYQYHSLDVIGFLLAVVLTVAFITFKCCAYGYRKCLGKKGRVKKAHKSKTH
# Liver microsome [10] = assay: Drug metabolism in human liver microsomes assessed as dextrophan-O-glucuronide formation measured as microsomal fraction unbound; assay type: ADME
# Liver microsome [11] = assay: Drug metabolism in human liver microsomes assessed as 3-hydroxymorphinan formation measured as microsomal fraction unbound; assay type: ADME
structure (smiles),measurement,setting,value
CN1CC[C@@]23CCCC[C@@H]2[C@@H]1Cc1ccc(O)cc13 [DEXTRORPHAN],CLH,Liver microsome [1],11 µL/min/mg
same,Fu,Liver microsome [2],0.55
same,Drug metabolism,[3],metabolite_not_detected
same,Drug metabolism,[4],metabolite_detected
same,Drug metabolism,[5],metabolite_not_detected
same,Km,Liver microsome [6],210 µM
same,CL free,Liver microsome [7],0.95 µL/min/mg
same,Vmax,Liver microsome [8],2.3 nmol/min
same,Drug metabolism,[9],metabolite_not_detected
same,Fu,Liver microsome [10],1
same,Fu,Liver microsome [11],1
